Read-outs that look alike come from different tables or passages of the source.
Tests used:
CK2α [1] = biological target: T1, CK2α (Homo sapiens, UniProt P68400); assay: biochemical; settings: for inhibition at 500 µM: read-out: Inhibition of the kinase activity @ 500 μM; for inhibition at 10 µM: read-out: Inhibition @10 μM
CK2α [2] = biological target: T1, CK2α; settings: for Enthalpy / Entropy: ITC; for LE (ligand efficiency): LE = ΔG/[number of heavy atoms]
kinases = settings: cited from earlier work; for number of kinases with > 70% inhibition: at 0.5 µM
HCT116 cells [3] = assay: cells; settings: Homo sapiens, HCT-116, 72 h
physchem = settings: kinase assay conditions
[4] = tested on: AKT1 serine 129 phosphorylation in HCT116 cells; settings: 2 × GI50 (20 μM), 72 hours
CK2 = settings: read-out: IC50 against CK2; cited from earlier work
SmMLCK = SmMLCK (Homo sapiens, UniProt Q15746); assay: biochemical; settings: read-out: inhibition of SmMLCK
Chain of SmMLCK (Q15746 923-1914): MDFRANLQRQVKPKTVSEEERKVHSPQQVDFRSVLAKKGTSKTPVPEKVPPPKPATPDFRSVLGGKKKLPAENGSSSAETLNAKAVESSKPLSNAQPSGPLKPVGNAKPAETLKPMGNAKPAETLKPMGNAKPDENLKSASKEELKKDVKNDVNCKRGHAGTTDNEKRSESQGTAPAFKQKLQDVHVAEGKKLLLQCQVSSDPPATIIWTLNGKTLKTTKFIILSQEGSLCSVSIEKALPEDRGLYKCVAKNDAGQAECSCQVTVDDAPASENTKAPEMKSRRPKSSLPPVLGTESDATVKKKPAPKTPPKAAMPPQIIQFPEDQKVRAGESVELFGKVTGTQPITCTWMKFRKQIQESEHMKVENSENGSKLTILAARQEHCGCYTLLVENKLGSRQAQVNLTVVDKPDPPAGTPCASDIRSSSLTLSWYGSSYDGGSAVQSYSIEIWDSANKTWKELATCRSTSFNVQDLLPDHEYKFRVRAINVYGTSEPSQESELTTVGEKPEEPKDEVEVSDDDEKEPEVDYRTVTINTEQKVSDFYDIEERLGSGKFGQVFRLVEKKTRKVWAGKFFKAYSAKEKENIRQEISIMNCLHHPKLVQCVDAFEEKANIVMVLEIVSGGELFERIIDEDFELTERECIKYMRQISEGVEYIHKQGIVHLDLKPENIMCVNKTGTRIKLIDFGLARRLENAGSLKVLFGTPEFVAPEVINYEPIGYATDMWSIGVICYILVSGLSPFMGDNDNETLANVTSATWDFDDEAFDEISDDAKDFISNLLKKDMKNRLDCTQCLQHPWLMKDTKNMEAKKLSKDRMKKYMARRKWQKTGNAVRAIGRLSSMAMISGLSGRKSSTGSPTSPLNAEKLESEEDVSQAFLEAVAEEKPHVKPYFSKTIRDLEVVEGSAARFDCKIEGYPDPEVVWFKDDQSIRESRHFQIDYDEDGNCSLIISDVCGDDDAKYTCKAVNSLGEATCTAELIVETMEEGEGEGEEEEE

SGK1 = SGK1 (Homo sapiens, UniProt O00141); assay: biochemical; settings: read-out: inhibition of SGK1
Chain of SGK1 (O00141 whole entry, species assumed): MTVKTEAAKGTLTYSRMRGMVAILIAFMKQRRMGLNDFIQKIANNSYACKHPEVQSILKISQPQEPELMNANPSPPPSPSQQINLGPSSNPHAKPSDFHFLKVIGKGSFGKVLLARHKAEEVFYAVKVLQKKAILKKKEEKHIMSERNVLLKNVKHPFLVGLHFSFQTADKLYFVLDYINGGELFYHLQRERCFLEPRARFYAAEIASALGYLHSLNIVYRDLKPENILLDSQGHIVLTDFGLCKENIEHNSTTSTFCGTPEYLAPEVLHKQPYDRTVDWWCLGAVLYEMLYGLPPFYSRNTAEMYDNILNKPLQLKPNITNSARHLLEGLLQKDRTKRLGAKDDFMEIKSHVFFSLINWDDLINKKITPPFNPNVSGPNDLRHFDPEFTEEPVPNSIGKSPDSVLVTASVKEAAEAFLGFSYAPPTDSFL

EF2K = EF2K (Homo sapiens, UniProt O00418); assay: biochemical; settings: read-out: inhibition of EF2K
Chain of EF2K (O00418 whole entry): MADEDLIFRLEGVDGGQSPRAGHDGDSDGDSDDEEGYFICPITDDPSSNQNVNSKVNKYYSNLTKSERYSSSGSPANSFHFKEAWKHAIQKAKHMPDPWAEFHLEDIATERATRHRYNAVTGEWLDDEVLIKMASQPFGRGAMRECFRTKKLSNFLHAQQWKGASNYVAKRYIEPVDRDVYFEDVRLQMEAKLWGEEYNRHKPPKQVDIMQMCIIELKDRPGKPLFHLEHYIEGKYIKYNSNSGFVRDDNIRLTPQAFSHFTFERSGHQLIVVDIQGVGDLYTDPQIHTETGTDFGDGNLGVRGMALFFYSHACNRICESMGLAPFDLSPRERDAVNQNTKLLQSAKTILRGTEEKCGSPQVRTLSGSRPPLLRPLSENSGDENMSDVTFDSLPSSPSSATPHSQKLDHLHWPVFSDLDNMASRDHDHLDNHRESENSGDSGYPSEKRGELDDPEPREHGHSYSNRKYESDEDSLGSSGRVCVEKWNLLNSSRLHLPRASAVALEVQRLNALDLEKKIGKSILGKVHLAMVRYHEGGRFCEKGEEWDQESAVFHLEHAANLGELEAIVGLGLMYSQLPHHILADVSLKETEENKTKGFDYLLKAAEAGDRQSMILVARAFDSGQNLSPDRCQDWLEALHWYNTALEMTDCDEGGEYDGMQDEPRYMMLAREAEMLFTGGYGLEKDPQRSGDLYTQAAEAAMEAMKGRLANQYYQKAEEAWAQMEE

CAMK1 = CAMK1 (Homo sapiens, UniProt Q14012); assay: biochemical; settings: read-out: inhibition of CAMK1
Chain of CAMK1 (Q14012 whole entry): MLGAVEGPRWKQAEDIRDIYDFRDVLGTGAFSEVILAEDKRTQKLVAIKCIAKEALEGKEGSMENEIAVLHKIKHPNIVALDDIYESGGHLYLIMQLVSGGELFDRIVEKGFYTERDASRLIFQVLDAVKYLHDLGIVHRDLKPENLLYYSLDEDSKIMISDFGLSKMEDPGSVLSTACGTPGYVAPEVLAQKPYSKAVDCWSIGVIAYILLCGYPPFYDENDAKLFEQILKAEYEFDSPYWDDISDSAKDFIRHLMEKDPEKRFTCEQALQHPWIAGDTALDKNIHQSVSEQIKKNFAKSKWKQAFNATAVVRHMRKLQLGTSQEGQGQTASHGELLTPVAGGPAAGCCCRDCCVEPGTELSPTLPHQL

HCT116 cells [5] = settings: from the functional (IC50) to the cellular assay (GI50)
CK2α [6] = biological target: T1, CK2α
panel of 140 kinases = settings: 30 μM (4 × IC50)
CK2α [7] = biological target: T1, CK2α; remark: listed apart in the source

T1 sequence (P68400 2-329): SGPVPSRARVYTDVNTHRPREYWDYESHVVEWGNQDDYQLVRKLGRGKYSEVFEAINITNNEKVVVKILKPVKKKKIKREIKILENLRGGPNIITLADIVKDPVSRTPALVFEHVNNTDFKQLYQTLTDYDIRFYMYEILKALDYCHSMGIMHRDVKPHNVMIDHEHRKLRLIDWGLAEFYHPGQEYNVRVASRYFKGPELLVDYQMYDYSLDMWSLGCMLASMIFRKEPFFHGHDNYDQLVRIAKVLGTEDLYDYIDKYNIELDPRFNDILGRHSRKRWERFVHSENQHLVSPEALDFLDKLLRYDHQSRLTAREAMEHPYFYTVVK

With Clc1cc(CNCc2ccccc2)ccc1-c1ccccc1 [Compound 16] the inhibition at 500 µM (CK2α [1]) was 54%.

With COc1ccccc1-c1ccc(CN)cc1Cl.Cl [Compound 5] the Enthalpy (CK2α [2]) was -1.184 kcal/mol, the Entropy (CK2α [2]) was -23.2 cal/mol/deg and the “LE (ligand efficiency)” value (CK2α [2]) was 0.30.

In the case of O=C(O)c1ccc2c(c1)nc(Nc1cccc(C(F)(F)F)c1)c1nc(NC3CC3)ncc12 [CX5279], the “number of kinases with > 70% inhibition” value (kinases; ref 5 (R. Battistutta et al., Biochemistry, 2011)) is listed as 4.

In the case of Cc1cc(F)ccc1-c1ccc(CN)cc1Cl.Cl [Compound 11], the Enthalpy (CK2α [2]) is reported as -6.977 kcal/mol, the Entropy (CK2α [2]) is reported as -5.21 cal/mol/deg and the “LE (ligand efficiency)” value (CK2α [2]) is reported as 0.33.

With Clc1cc(CNCCc2cnc[nH]2)ccc1-c1ccccc1 [Compound 20] the inhibition at 500 µM (CK2α [1]) was 50%.

In the case of NCc1ccc(-c2ccccc2F)c(Cl)c1 [Compound 6], the Enthalpy (CK2α [2]) is reported as -1.253 kcal/mol, the Entropy (CK2α [2]) is reported as -25.4 cal/mol/deg and the “LE (ligand efficiency)” value (CK2α [2]) is reported as 0.32.

In the case of CCc1ccccc1-c1ccc(CNCCc2nc3ccc(OC)cc3[nH]2)cc1Cl.Cl [Compound 29], the GI50 (HCT116 cells [3]) is reported as 11 µM, the inhibition at 10 µM (CK2α [1]) is reported as 64% and the solubility (physchem) is reported as ≤ 50 µM.

Work on Clc1cc(CNCCCc2ccccc2)ccc1-c1ccccc1 [Compound 18] yielded an inhibition at 500 µM (CK2α [1]) of 40%.

In the case of Cc1ccccc1-c1ccc(CN)cc1Cl.Cl [Compound 2], the Enthalpy (CK2α [2]) is reported as -5.054 kcal/mol, the Entropy (CK2α [2]) is reported as 3.11 cal/mol/deg and the “LE (ligand efficiency)” value (CK2α [2]) is reported as 0.38.

Work on CCc1ccccc1-c1ccc(CNCCc2nc3ccccc3[nH]2)cc1C(F)(F)F [Compound 32] yielded an inhibition at 10 µM (CK2α [1]) of 23%.

With CCc1ccccc1-c1ccc(CNCCc2nc3cccc(C)c3[nH]2)cc1Cl [Compound 24] the inhibition at 10 µM (CK2α [1]) was 45%.

CCc1ccccc1-c1ccc(CNCCc2nc3ccccc3[nH]2)cc1OC(F)(F)F [Compound 34] gave an inhibition at 10 µM (CK2α [1]) of 39%.

Work on CCc1ccccc1-c1ccc(CNCCc2nc3ccccc3[nH]2)cc1C [Compound 31] yielded an inhibition at 10 µM (CK2α [1]) of 30%.

In the case of CCc1ccccc1-c1c(Cl)cc(CN)cc1Cl.O=C(O)C(F)(F)F [Compound 15], the Enthalpy (CK2α [2]) is reported as -6.361 kcal/mol, the Entropy (CK2α [2]) is reported as 11.8 cal/mol/deg and the “LE (ligand efficiency)” value (CK2α [2]) is reported as 0.41.

Work on CCc1ccccc1-c1ccc(CNCCc2nc3ccc(Cl)cc3[nH]2)cc1Cl [Compound 30] yielded an inhibition at 10 µM (CK2α [1]) of 50%.

With Cl.NCc1ccc(-c2ccccc2O)c(Cl)c1 [Compound 7] the Enthalpy (CK2α [2]) was -5.671 kcal/mol, the Entropy (CK2α [2]) was -3.34 cal/mol/deg and the “LE (ligand efficiency)” value (CK2α [2]) was 0.30.

In the case of CCc1ccccc1-c1ccc(CNCCc2nc3ccccc3[nH]2)cc1Cl [Compound 23], the GI50 (HCT116 cells [3]) is reported as 10 µM, the “inhibition of the phosphorylation of Ser129 of Akt1” value (from here on “inhibition … of Akt1”) [4] is reported as “good inhibition” and the solubility (physchem) is reported as ≤ 50 µM.

CCc1ccccc1-c1c(Cl)cc(CNCCc2nc3cccc(OC)c3[nH]2)cc1Cl [Compound 35] showed an inhibition at 10 µM (CK2α [1]) of 47%.

In the case of O=C(O)c1ccc2c(c1)nc(Nc1cccc(Cl)c1)c1ccncc12 [CX4945], the GI50 (HCT116 cells [3]) is listed as 11.3 ± 1.2 µM, the IC50 (CK2) is listed as […] and the “number of kinases with > 70% inhibition” value (kinases; ref 2 (H. Kim et al., PLoS One, 2014)) is listed as 26. For the same compound, the “number of other kinases inhibited with nanomolar affinity” value (kinases) was 12.

In the case of CCc1ccccc1-c1ccc(CNCCc2nc3ccccc3[nH]2)cc1OC [Compound 33], the inhibition at 10 µM (CK2α [1]) is reported as 41%.

Clc1cc(CNCc2ccc[nH]2)ccc1-c1ccccc1 [Compound 19] showed an inhibition at 500 µM (CK2α [1]) of 52%.

Work on CCc1ccccc1-c1ccc(CNCCc2nc3ccc([N+](=O)[O-])cc3[nH]2)cc1Cl [Compound 28] yielded an inhibition at 10 µM (CK2α [1]) of 36%.

With CCc1ccccc1-c1c(Cl)cc(CNCCc2nc3ccccc3[nH]2)cc1Cl [CAM4712] the inhibition at 30 µM (SmMLCK) was > 50%, the GI50 (HCT116 cells [3]) was 10 ± 3.6 µM and the “solubility for ITC” value was “not soluble enough for ITC”. The solubility in water was “moderate solubility”, the inhibition at 30 µM (SGK1) was > 50% and the inhibition at 30 µM (EF2K) was > 50%. The inhibition at 10 µM (CK2α [1]) was 80%, the inhibition at 30 µM (CAMK1) was > 50% and the “inhibition … of Akt1” value [4] was “good inhibition”. For the same compound, the Enthalpy (CK2α [2]) was -4.09 kcal/mol, the Entropy (CK2α [2]) was 9.46 cal/mol/deg and the solubility (physchem) was ≤ 50 µM. For the same compound, the Drop in potency (HCT116 cells [5]) was “No”, the “Inhibition of binding of compound 37 (Lys68 probe) to CK2α” value (CK2α [6]; 20 μM CAM4712) was “not inhibited” and the Enthalpy (CK2α [6]; CAM4712 in competition with 15) was -3.42 kcal/mol. The Enthalpy (CK2α [6]; CAM4712 in competition with CAM4066) was -11.71 kcal/mol, the Enthalpy (CK2α [6]; CAM4712 in competition with CX4945) was -5.9 kcal/mol and the “number of kinases inhibited for more than 50%” value (panel of 140 kinases) was 4. The “decrease in potency compared to CAM4066” value (CK2α [7]) was 10 fold.

For Cl.NCc1cc(Cl)c(-c2ccccc2)c(Cl)c1 [Compound 14], the Enthalpy (CK2α [2]) was -3.333 kcal/mol, the Entropy (CK2α [2]) was 9.78 cal/mol/deg and the “LE (ligand efficiency)” value (CK2α [2]) was 0.43.

CCc1ccccc1-c1ccc(CNCCc2nc3cccc([N+](=O)[O-])c3[nH]2)cc1Cl [Compound 25] gave an inhibition at 10 µM (CK2α [1]) of 50%.

In the case of CC(C)c1ccccc1-c1ccc(CN)cc1Cl.Cl [Compound 4], the Enthalpy (CK2α [2]) is reported as -1.846 kcal/mol, the Entropy (CK2α [2]) is reported as -23.2 cal/mol/deg and the “LE (ligand efficiency)” value (CK2α [2]) is reported as 0.29.

Clc1cc(CNCCc2ccccc2)ccc1-c1ccccc1 [Compound 17] gave an inhibition at 500 µM (CK2α [1]) of 42%.

CCc1ccccc1-c1c(Cl)cc(CNCCc2nc3ccc(OC)cc3[nH]2)cc1Cl [Compound 36] showed an inhibition at 10 µM (CK2α [1]) of 46%.

For CCc1ccccc1-c1ccc(CNCCc2nc3cccc(OC)c3[nH]2)cc1Cl.Cl [Compound 26], the GI50 (HCT116 cells [3]) was 11 µM, the inhibition at 10 µM (CK2α [1]) was 52% and the “inhibition … of Akt1” value [4] was “good inhibition”. The solubility (physchem) was ≤ 50 µM.

For Cl.NCc1ccc(-c2cccc3ccccc23)c(Cl)c1 [Compound 12], the Enthalpy (CK2α [2]) was -8.425 kcal/mol, the Entropy (CK2α [2]) was -11 cal/mol/deg and the “LE (ligand efficiency)” value (CK2α [2]) was 0.27.

CCc1ccccc1-c1ccc(CNCCc2nc3ccc(C)cc3[nH]2)cc1Cl [Compound 27] gave an inhibition at 10 µM (CK2α [1]) of 38%.

From paper PMC5916021 (Chemical Science, 2018)
